Patent US20230123277A1, “COMPOSITIONS COMPRISING 2'-DEOXYCYTIDINE ANALOGS AND USE THEREOF FOR THE TREATMENT OF SICKLE CELL DISEASE AND THALASSEMIA” (AkiraBio, Inc., priority 2021, published 2023)

Legend:
[1] = test system: pediatric brain tumor models; conditions: background statement; cited from earlier work
[2] = Relative thermodynamic stability of crystalline polymorphs (DSC); format: physicochemical; conditions: Form A compared with Form F, from melting temperatures
Method: DSC ANALYSIS. Thermal events (i.e., melting, re-crystallization) were obtained from DSC thermograms, recorded with a heat flux DSC3+ STARe system (Mettler-Toledo GmbH, Switzerland). The DSC3+ was calibrated for temperature and enthalpy with a small piece of indium (m.p.=156.6° C.; δHf=28.45 J/g) and zinc (m.p.=419.6° C.; δHf=107.5 J/g). Samples (circa 2 mg) were sealed in standard 40 μL aluminum pans, pin-holed and heated in the DSC from 25° C. to 300° C., at a heating rate of 10° C./min. Dry N2 gas, at a flow rate of 50 mL/min was used to purge the DSC equipment during measurement. The cycling DSC experiments were measured in standard 40 μL aluminum pans, pin-holed and heated in the DSC from 25° C. to variable temperatures, then cooled back to 25° C. The heating and cooling rate was 10° C./min. Dry N2 gas, at a flow rate of 50 mL/min was used to purge the DSC equipment during measurement. Afterwards the samples were recovered and analyzed by HT-XRPD.
Form A obtained from the solvent equilibration experiment at RT in TFE was used for the analytical characterization. […] (FIG. 12A). […] The LCMS analysis confirmed the Form A's integrity with a purity of 100% (area %) (FIG. 12C).
Form F obtained from the evaporative crystallization experiment using DMF/acetonitrile (80/20, v/v) was used for characterization. […]

thermodynamic stability of the polymorph [2]	Structure (SMILES)	therapeutic response [1]
–	Nc1ncn([C@H]2C[C@H](O)[C@@H](CO)S2)c(=O)n1 [5-aza-4′-thio-2′-deoxycytidine]	no significant therapeutic response
–	Nc1nc(=O)n([C@H]2C[C@H](O)[C@@H](CO)O2)cc1F [5-fluoro-2′-deoxycytidine, reference compound]	no significant therapeutic response
thermodynamically more stable form	Nc1ncn([C@H]2C[C@H](O)[C@@H](CO)S2)c(=O)n1 [Form A, 5-aza-4′-thio-2′-deoxycytidine]	–
